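Where inhibition never reached the appropriate level, the endpoint shown equals the highest concentration tested. Otherwise, values were interpolated linearly from a five-concentration, 48-hour dose response in 96-well plates. At the GI50, growth is halved.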 Activity calls are given as the source filed them. Cut-off read from the data, not from the text of the source: active = GI50 up to about 1.1 µM and inactive = higher.
Assays:
Test in all cases: NCI anticancer screen, dose series, 48 h
[1] = tested on: MDA-MB-435
[2] = tested on: HL-60
[3] = tested on: T47D
[4] = tested on: SNB-19
[5] = tested on: SW-620
[6] = tested on: SF-268
[7] = tested on: NCI/ADR-RES
[8] = tested on: MDA-MB-231
[9] = tested on: NCI-H226
[10] = tested on: BT-549
[11] = tested on: HOP-62
[12] = tested on: EKVX
[13] = tested on: OVCAR-3
[14] = tested on: LOX IMVI
[15] = tested on: RPMI-8226
[16] = tested on: UACC-62
[17] = tested on: SN12C
[18] = tested on: HCT-15
[19] = tested on: SK-MEL-28
[20] = tested on: HCT-116
[21] = tested on: K562
[22] = tested on: M14
[23] = tested on: OVCAR-5
[24] = tested on: NCI-H23
[25] = tested on: CCRF-CEM
[26] = tested on: MDA-N
[27] = tested on: SNB-75
[28] = tested on: Hs-578T
[29] = tested on: CAKI-1
[30] = tested on: RXF 393
[31] = tested on: OVCAR-8
[32] = tested on: MCF7
[33] = tested on: MOLT-4
[34] = tested on: UO-31
[35] = tested on: SK-MEL-2
[36] = tested on: 786-0
[37] = tested on: A549
[38] = tested on: ACHN
[39] = tested on: Malme-3M
[40] = tested on: TK-10
[41] = tested on: NCI-H522
[42] = tested on: KM12
[43] = tested on: DU-145
[44] = tested on: HOP-92
[45] = tested on: SK-MEL-5
[46] = tested on: UACC-257
[47] = tested on: PC-3
[48] = tested on: SF-295
[49] = tested on: OVCAR-4
[50] = tested on: A498
[51] = tested on: HT-29
[52] = tested on: SR
[53] = tested on: SF-539
[54] = tested on: COLO 205
[55] = tested on: SK-OV-3
[56] = tested on: U-251
[57] = tested on: IGROV-1
[58] = tested on: NCI-H460
[59] = tested on: HCC 2998

## O=[N+]([O-])c1ccc2c3c1[C@H]1O[C@H]1c1cccc(c1-3)[C@@H]1O[C@H]21
[1]
  GI50: 1.85 µM (inactive)
[2]
  GI50: 3.15 µM (inactive)
[3]
  GI50: 2.08 µM (inactive)
[4]
  GI50: 3.54 µM (inactive)
[5]
  GI50: 0.951 µM (active)
[6]
  GI50: 1.98 µM (inactive)
[7]
  GI50: 2.41 µM (inactive)
[8]
  GI50: 2.01 µM (inactive)
[9]
  GI50: 45.9 µM (inactive)
[10]
  GI50: 1.99 µM (inactive)
[11]
  GI50: 2.9 µM (inactive)
[12]
  GI50: 2.03 µM (inactive)
[13]
  GI50: 2.63 µM (inactive)
[14]
  GI50: 0.305 µM (active)
[15]
  GI50: 1.23 µM (inactive)
[16]
  GI50: 1.86 µM (inactive)
[17]
  GI50: 2.12 µM (inactive)
[18]
  GI50: 1.71 µM
[19]
  GI50: 2.28 µM (inactive)
[20]
  GI50: 1.81 µM (inactive)
[21]
  GI50: 0.526 µM (active)
[22]
  GI50: 1.71 µM (inactive)
[23]
  GI50: 2.37 µM (inactive)
[24]
  GI50: 1.81 µM (inactive)
[25]
  GI50: 1.44 µM (inactive)
[26]
  GI50: 2.17 µM (inactive)
[27]
  GI50: 1.97 µM (inactive)
[28]
  GI50: 3.15 µM (inactive)
[29]
  GI50: 1.99 µM (inactive)
[30]
  GI50: 1.78 µM (inactive)
[31]
  GI50: 0.91 µM (active)
[32]
  GI50: 2.11 µM (inactive)
[33]
  GI50: 3.01 µM (inactive)
[34]
  GI50: 2 µM (inactive)
[35]
  GI50: 2.52 µM (inactive)
[36]
  GI50: 1.96 µM (inactive)
[37]
  GI50: 3.2 µM (inactive)
[38]
  GI50: 2.22 µM (inactive)
[39]
  GI50: 2.4 µM (inactive)
[40]
  GI50: 2.96 µM (inactive)
[41]
  GI50: 1.67 µM (inactive)
[42]
  GI50: 2.35 µM (inactive)
[43]
  GI50: 2.33 µM (inactive)
[44]
  GI50: 2.18 µM (inactive)
[45]
  GI50: 3.02 µM (inactive)
[46]
  GI50: 1.82 µM (inactive)
[47]
  GI50: 2.3 µM (inactive)
[48]
  GI50: 3.5 µM (inactive)
[49]
  GI50: 2.12 µM (inactive)
[50]
  GI50: 2.31 µM (inactive)
[51]
  GI50: 2.01 µM (inactive)
[52]
  GI50: 2.72 µM (inactive)
[53]
  GI50: 2.3 µM (inactive)
[54]
  GI50: 2.05 µM (inactive)
[55]
  GI50: 4.22 µM (inactive)
[56]
  GI50: 1.8 µM (inactive)

## N#CCCN(CCC#N)c1ccc(C(=N/c2ccc(Cl)cc2)/N=N/c2ccc(Cl)cc2)cc1
[1]
  GI50: 18.2 µM (inactive)
[3]
  GI50: 7.6 µM (inactive)
[4]
  GI50: 24.2 µM (inactive)
[5]
  GI50: 17.7 µM (inactive)
[6]
  GI50: 15.7 µM (inactive)
[7]
  GI50: 17.2 µM (inactive)
[8]
  GI50: 19.5 µM (inactive)
[57]
  GI50: 14.6 µM (inactive)
[9]
  GI50: 17.3 µM (inactive)
[58]
  GI50: 13.4 µM (inactive)
[10]
  GI50: 14 µM (inactive)
[11]
  GI50: 21.7 µM (inactive)
[12]
  GI50: 18.7 µM (inactive)
[13]
  GI50: 16.7 µM (inactive)
[15]
  GI50: 47.2 µM (inactive)
[16]
  GI50: 10.9 µM (inactive)
[17]
  GI50: 17.7 µM (inactive)
[18]
  GI50: 10.7 µM
[19]
  GI50: 59.2 µM (inactive)
[20]
  GI50: 19 µM (inactive)
[21]
  GI50: 32.5 µM (inactive)
[22]
  GI50: 21.5 µM (inactive)
[23]
  GI50: 17.2 µM (inactive)
[24]
  GI50: 17.5 µM (inactive)
[25]
  GI50: 35.2 µM (inactive)
[26]
  GI50: 19.5 µM (inactive)
[27]
  GI50: 20 µM (inactive)
[28]
  GI50: 19.4 µM (inactive)
[29]
  GI50: 16.4 µM (inactive)
[30]
  GI50: 14.3 µM (inactive)
[31]
  GI50: 17.6 µM (inactive)
[32]
  GI50: 10.1 µM (inactive)
[33]
  GI50: 22.5 µM (inactive)
[34]
  GI50: 15.2 µM (inactive)
[35]
  GI50: 9.23 µM (inactive)
[59]
  GI50: 12.8 µM (inactive)
[36]
  GI50: 18.3 µM (inactive)
[37]
  GI50: 16.9 µM (inactive)
[38]
  GI50: 18.2 µM (inactive)
[40]
  GI50: 18.5 µM (inactive)
[41]
  GI50: 17 µM (inactive)
[42]
  GI50: 13.6 µM (inactive)
[43]
  GI50: 15.5 µM (inactive)
[44]
  GI50: 19.2 µM (inactive)
[45]
  GI50: 10.1 µM (inactive)
[46]
  GI50: 15 µM (inactive)
[47]
  GI50: 15.6 µM (inactive)
[48]
  GI50: 10.7 µM (inactive)
[49]
  GI50: 17.9 µM (inactive)
[50]
  GI50: 19.9 µM (inactive)
[51]
  GI50: 19.8 µM (inactive)
[52]
  GI50: 18.9 µM (inactive)
[53]
  GI50: 17.8 µM (inactive)
[54]
  GI50: 16.2 µM (inactive)
[55]
  GI50: 33 µM (inactive)
[56]
  GI50: 19 µM (inactive)
